Like-named read-outs stand apart in the source and are kept apart here.
How the values were obtained:
Experiment in all cases: MIC broth microdilution (CLSI)
Assay type in all cases: cell-based
A. baumannii = conditions: Acinetobacter baumannii
Method: (§1) Minimum inhibitory concentrations for representative example compounds herein were determined by a broth microdilution method in accordance with the Clinical and Laboratory Standards Institute (CLSI) guidelines. In brief, organism suspensions were adjusted to a 0.5 McFarland standard to yield a final inoculum between 3×10^5 and 7×10^5 colony-forming units (CFU)/mL. The inoculum was prepared by suspension of a colony from an agar plate that was prepared the previous day. Compound dilutions and inoculum were prepared in sterile, cation adjusted Mueller-Hinton Broth (Beckton Dickinson).
(§2) Bacteria were suspended in sterile saline and added to each assay plate to obtain a final concentration of 5×10^5 CFU/mL. An inoculum volume of 100 μL was added to wells containing 100 μL of broth with 2-fold serial dilutions of the test compound. All inoculated microdilution trays were incubated in ambient air at 35° C. for 18-24 hours. Following incubation, the lowest concentration of the compound that prevented visible growth (OD 600 nm<0.05) is recorded was the MIC. […] Performance of the assay was monitored by the use of laboratory quality-control strains and a standard compound with a defined MIC spectrum (neomycin), in accordance with CLSI guidelines.

C. freundii = conditions: Citrobacter freundii, read-out: Activity (MIC)
Method: as §1, §2

E. cloacae = conditions: Enterobacter cloacae; strain AECL1089, MDR Clinical isolate (CDC CRE panel), CDC AR Bank 0154
Method: as §1, §2

E. coli = conditions: Escherichia coli
Method: as §1, §2

K. aerogenes = conditions: Klebsiella aerogenes; strain AEAE1042, MDR Clinical isolate (CDC CRE panel), CDC AR Bank 0161
Method: as §1, §2

K. pneumoniae = test system: K. pneumoniae
Method: as §1, §2

P. aeruginosa = conditions: Pseudomonas aeruginosa
Method: as §1, §2

P. mirabilis = conditions: Proteus mirabilis; strain APMI1048, MDR Clinical isolate (CDC CRE panel), CDC AR Bank 0159
Method: as §1, §2

S. aureus = conditions: for MIC: Staphylococcus aureus
Method: as §1, §2

S. enterica = conditions: Salmonella enterica, read-out: Activity (MIC)
Method: as §1, §2

C[C@H](N)[C@@H]1CC[C@@H](N)[C@@H](O[C@@H]2[C@@H](N)[C@H](O)[C@@H](NC(=O)[C@@H](O)CCN)[C@H](O)[C@H]2O[C@@H]2O[C@H](CO)[C@@H](O[C@H]3O[C@@H](CN)[C@@H](O)[C@H](O)[C@H]3N)[C@H]2O)O1 [Compound 6, (S)-4-Amino-N-((1R,2S,3S,4R,5R,6S)-3-Amino-4-(((2R,3R,6S)-3-Amino-6-((S)-1-Aminoethyl)Tetrahydro-2H-Pyran-2-Yl)Oxy)-5-(((2S,3R,4S,5R)-4-(((2R,3R,4R,5S,6S)-3-Amino-6-(Aminomethyl)-4,5-Dihydroxytetrahydro-2H-Pyran-2-Yl)Oxy)-3-Hydroxy-5-(Hydroxymethyl)Tetrahydrofuran-2-Yl)Oxy)-2,6-Dihydroxycyclohexyl)-2-Hydroxybutanamide]
MIC (A. baumannii; read-out: Activity (MIC), strain NABA0007, ΔadeJK efflux): < 16 µg/mL | MIC (A. baumannii; read-out: Activity (MIC), strain NABA1427, MDR Clinical isolate): < 16 µg/mL | MIC (A. baumannii; read-out: Activity (MIC), strain NABA1433, MDR Clinical isolate): < 16 µg/mL | MIC (A. baumannii; read-out: Activity (MIC), strain NABA1434, MDR Clinical isolate): < 16 µg/mL | MIC (A. baumannii; read-out: Activity (MIC), strain NABA1436, MDR Clinical isolate): < 16 µg/mL | MIC (A. baumannii; read-out: Activity (MIC), strain NABA1437, MDR Clinical isolate): < 16 µg/mL | MIC (A. baumannii; read-out: Activity (MIC), strain NABA1438, MDR Clinical isolate): < 16 µg/mL | MIC (A. baumannii; read-out: Activity (MIC), strain NABA1439, MDR Clinical isolate): < 16 µg/mL | MIC (A. baumannii; read-out: Activity (MIC), strain NABA1448, MDR Clinical isolate): < 16 µg/mL | MIC (A. baumannii; read-out: Activity (MIC), strain NABA1449, MDR Clinical isolate): < 16 µg/mL | MIC (A. baumannii; read-out: Activity (MIC), strain NABA1450, MDR Clinical isolate): < 16 µg/mL | MIC (A. baumannii; strain NABA0006, WT parent, read-out: Activity (MIC)): < 16 µg/mL | MIC (A. baumannii; strain NABA0020, AME negative strain, read-out: Activity (MIC)): < 16 µg/mL | MIC (C. freundii): < 16 µg/mL | MIC (E. cloacae): < 16 µg/mL | MIC (E. coli; read-out: Activity (MIC), strain AECO1225, MDR Clinical isolate (CDC CRE panel), CDC AR Bank 0118): < 16 µg/mL | MIC (E. coli; read-out: Activity (MIC), strain AECO1226, MDR Clinical isolate (CDC CRE panel), CDC AR Bank 0119): < 16 µg/mL | MIC (E. coli; read-out: Activity (MIC), strain AECO1227, MDR Clinical isolate (CDC CRE panel), CDC AR Bank 0128): < 16 µg/mL | MIC (E. coli; read-out: Activity (MIC), strain NECO0003, ΔtolC): < 16 µg/mL | MIC (E. coli; read-out: Activity (MIC), strain NECO0245, ArmA): < 16 µg/mL | MIC (E. coli; strain NECO0001, WT QC, read-out: Activity (MIC)): < 16 µg/mL | MIC (E. coli; strain NECO0002, WT, read-out: Activity (MIC)): < 16 µg/mL | MIC (E. coli; strain NECO0243, empty vector, read-out: Activity (MIC)): < 16 µg/mL | MIC (E. coli; strain NECO0244, AAC(6')-Ib, read-out: Activity (MIC)): < 16 µg/mL | MIC (E. coli; strain NECO0289, APH(3')-Ia, read-out: Activity (MIC)): < 16 µg/mL | MIC (E. coli; strain NECO0302, AAC(3)-IIa, read-out: Activity (MIC)): < 16 µg/mL | MIC (E. coli; strain NECO0350, AAC(2')-I, read-out: Activity (MIC)): < 16 µg/mL | MIC (E. coli; strain NECO0359, ANT(4')-Ia, read-out: Activity (MIC)): < 16 µg/mL | MIC (K. aerogenes): < 16 µg/mL | MIC (K. pneumoniae; Klebsiella pneumoniae, strain AKPN1246, MDR Clinical isolate (CDC CRE panel), CDC AR Bank 0139): < 16 µg/mL | Activity (MIC) (K. pneumoniae; strain AKPN1250, MDR Clinical isolate (CDC CRE panel), CDC AR Bank 0143): + (MIC threshold for positive activity (+) is ≤16 μg/mL) | Activity (MIC) (K. pneumoniae; strain AKPN1253, MDR Clinical isolate (CDC CRE panel), CDC AR Bank 0148): + (MIC threshold for positive activity (+) is ≤16 μg/mL) | Activity (MIC) (K. pneumoniae; strain AKPN1255, MDR Clinical isolate (CDC CRE panel), CDC AR Bank 0153): + (MIC threshold for positive activity (+) is ≤16 μg/mL) | MIC (P. aeruginosa; read-out: Activity (MIC), strain NPAE0006, Efflux KO, Aph(3')-IIb): < 16 µg/mL | MIC (P. aeruginosa; read-out: Activity (MIC), strain NPAE0010, MexXY over-expressed, Aph(3')-IIb): < 16 µg/mL | MIC (P. aeruginosa; read-out: Activity (MIC), strain NPAE1288, MDR Clinical isolate): < 16 µg/mL | MIC (P. aeruginosa; read-out: Activity (MIC), strain NPAE1293, MDR Clinical isolate): < 16 µg/mL | MIC (P. aeruginosa; read-out: Activity (MIC), strain NPAE1299, MDR Clinical isolate): < 16 µg/mL | MIC (P. aeruginosa; read-out: Activity (MIC), strain NPAE1302, MDR Clinical isolate): < 16 µg/mL | MIC (P. aeruginosa; read-out: Activity (MIC), strain NPAE1303, MDR Clinical isolate): < 16 µg/mL | MIC (P. aeruginosa; read-out: Activity (MIC), strain NPAE1308, MDR Clinical isolate): > 16 µg/mL | MIC (P. aeruginosa; read-out: Activity (MIC), strain NPAE1310, MDR Clinical isolate): < 16 µg/mL | MIC (P. aeruginosa; read-out: Activity (MIC), strain NPAE1313, MDR Clinical isolate): < 16 µg/mL | MIC (P. aeruginosa; read-out: Activity (MIC), strain NPAE1316, MDR Clinical isolate): < 16 µg/mL | MIC (P. aeruginosa; read-out: Activity (MIC), strain NPAE1323, MDR Clinical isolate): < 16 µg/mL | MIC (P. aeruginosa; strain NPAE0001, WT Aph(3')-IIb, QC, read-out: Activity (MIC)): < 16 µg/mL | MIC (P. aeruginosa; strain NPAE0002, WT Aph(3')-IIb, read-out: Activity (MIC)): < 16 µg/mL | MIC (P. aeruginosa; strain NPAE0359, aph(3')-IIb KO (tetR), read-out: Activity (MIC)): < 16 µg/mL | MIC (P. mirabilis): < 16 µg/mL | MIC (S. aureus; ATCC29213, strain NSAU001, wild-type, QC, ATCC 29213): < 16 µg/mL | MIC (S. aureus; strain NSAU1004, MDR Clinical isolate): < 16 µg/mL | Activity (MIC) (S. aureus; strain NSAU1015, MDR Clinical isolate): + (MIC threshold for positive activity (+) is ≤16 μg/mL) | Activity (MIC) (S. aureus; strain NSAU1023, MDR Clinical isolate): + (MIC threshold for positive activity (+) is ≤16 μg/mL) | Activity (MIC) (S. aureus; strain NSAU1063, MDR Clinical isolate): + (MIC threshold for positive activity (+) is ≤16 μg/mL) | MIC (S. enterica): < 16 µg/mL

Reference: US20250032524A1, “BROAD SPECTRUM AMINOGLYCOSIDES AND USES THEREOF” (REVAGENIX, INC., priority 2022, published 2025)
